Measured values reported in ChEMBL document CHEMBL4219142, “Discovery of potent DOT1L inhibitors by AlphaLISA based High Throughput Screening assay” (Bioorg Med Chem, 2018).

How the values were obtained:
MV4-11 [1] = assay: Cell cycle arrest in human MV411 cells assessed as accumulation at S phase at 0.3125 uM after 24 hrs by propidium iodide staining based flow cytometric analysis (reference value: 30.25 to 47.5%); type: functional
MV4-11 [2] = assay: Cell cycle arrest in human MV411 cells assessed as accumulation at G2 phase at 0.625 uM after 24 hrs by propidium iodide staining based flow cytometric analysis (reference value: 4.19 to 11.88%); type: functional
MV4-11 [3] = assay: Induction of apoptosis in human MV411 cells assessed as viable cells at 1.25 uM after 48 hrs by Annexin-V-FITC/propidium iodide staining based flow cytometric method (reference value: 88.5 to 94.5%); type: functional; conditions: MV4-11, 48 h, read-out: Activity
MV4-11 [4] = assay: Induction of apoptosis in human MV411 cells assessed as early apoptotic cells at 1.25 uM after 48 hrs by Annexin-V-FITC/propidium iodide staining based flow cytometric method (reference value: 1.15 to […]); type: functional
MV4-11 [5] = assay: Induction of apoptosis in human MV411 cells assessed as viable cells at 0.3125 uM after 48 hrs by Annexin-V-FITC/propidium iodide staining based flow cytometric method (reference value: 88.5 to 94.5%); type: functional; conditions: MV4-11, 48 h, read-out: Activity
MV4-11 [6] = assay: Cell cycle arrest in human MV411 cells assessed as accumulation at G1 phase at 0.625 uM after 24 hrs by propidium iodide staining based flow cytometric analysis (reference value: 40.62 to 65.56%); type: functional
[7] = biological target: T1, Histone-lysine N-methyltransferase, H3 lysine-79 specific (Homo sapiens, UniProt Q8TEK3); assay: (§1) Inhibition of recombinant human His6-SUMO tagged DOT1L (1 to 416 residues) expressed in Escherichia coli BL21(DE3) at 100 uM using oligonucleosome as substrate pretreated for 15 mins followed by substrate addition measured after 60 mins in presence of [3H]SAM by liquid scintillation counting method relative to control
Target sequence in this assay (Q8TEK3 whole entry, looked up, the tested form may be a part): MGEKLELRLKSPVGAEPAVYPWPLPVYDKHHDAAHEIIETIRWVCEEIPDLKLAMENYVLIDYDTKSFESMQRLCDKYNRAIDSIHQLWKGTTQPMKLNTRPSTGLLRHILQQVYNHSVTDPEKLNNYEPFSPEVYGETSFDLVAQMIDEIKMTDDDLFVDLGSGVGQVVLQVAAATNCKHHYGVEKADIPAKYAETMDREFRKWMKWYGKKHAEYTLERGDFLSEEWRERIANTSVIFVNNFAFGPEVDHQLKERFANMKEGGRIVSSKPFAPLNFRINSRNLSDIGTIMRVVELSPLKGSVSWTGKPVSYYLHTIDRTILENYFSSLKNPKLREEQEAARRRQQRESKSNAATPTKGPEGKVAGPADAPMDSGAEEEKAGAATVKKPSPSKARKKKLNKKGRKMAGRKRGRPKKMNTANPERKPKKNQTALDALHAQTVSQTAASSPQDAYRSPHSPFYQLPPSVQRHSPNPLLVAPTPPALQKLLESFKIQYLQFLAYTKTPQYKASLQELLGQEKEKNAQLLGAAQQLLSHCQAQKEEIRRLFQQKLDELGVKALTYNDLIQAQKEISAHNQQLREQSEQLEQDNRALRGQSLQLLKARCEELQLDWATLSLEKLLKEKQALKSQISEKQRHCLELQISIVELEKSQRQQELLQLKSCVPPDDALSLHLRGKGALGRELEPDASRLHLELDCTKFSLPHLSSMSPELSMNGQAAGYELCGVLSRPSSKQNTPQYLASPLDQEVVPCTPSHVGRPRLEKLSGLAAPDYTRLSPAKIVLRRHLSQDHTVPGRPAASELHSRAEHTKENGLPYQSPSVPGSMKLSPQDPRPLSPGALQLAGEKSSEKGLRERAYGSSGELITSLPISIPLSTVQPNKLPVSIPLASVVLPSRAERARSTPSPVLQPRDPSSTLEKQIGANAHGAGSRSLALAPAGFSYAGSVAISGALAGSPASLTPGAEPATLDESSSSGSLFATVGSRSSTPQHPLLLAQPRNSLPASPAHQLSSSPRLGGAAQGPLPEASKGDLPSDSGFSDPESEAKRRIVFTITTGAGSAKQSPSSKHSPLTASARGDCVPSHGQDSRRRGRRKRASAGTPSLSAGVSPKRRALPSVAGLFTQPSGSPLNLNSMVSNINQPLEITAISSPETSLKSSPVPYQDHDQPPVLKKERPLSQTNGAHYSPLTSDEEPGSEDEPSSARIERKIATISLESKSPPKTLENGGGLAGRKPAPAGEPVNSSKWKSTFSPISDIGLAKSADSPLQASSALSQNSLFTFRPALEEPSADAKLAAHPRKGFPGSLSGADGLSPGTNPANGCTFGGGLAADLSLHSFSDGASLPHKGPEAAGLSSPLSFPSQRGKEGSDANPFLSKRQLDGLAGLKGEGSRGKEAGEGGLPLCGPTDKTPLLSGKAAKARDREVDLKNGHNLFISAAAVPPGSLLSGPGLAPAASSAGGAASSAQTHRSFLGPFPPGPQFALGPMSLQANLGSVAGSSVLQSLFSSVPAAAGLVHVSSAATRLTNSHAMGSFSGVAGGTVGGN

MV4-11 [8] = assay: Induction of apoptosis in human MV411 cells assessed as early apoptotic cells at 0.625 uM after 48 hrs by Annexin-V-FITC/propidium iodide staining based flow cytometric method (reference value: 1.15 to […]); type: functional
[9] = biological target: T1, Histone-lysine N-methyltransferase, H3 lysine-79 specific; assay: as §1, with “50” for “100”
Target sequence in this assay (Q8TEK3 whole entry, looked up, the tested form may be a part): as above

MV4-11 [10] = assay: Induction of apoptosis in human MV411 cells assessed as necrotic cells at 0.625 uM after 48 hrs by Annexin-V-FITC/propidium iodide staining based flow cytometric method (Rvb <= 0.08%); type: functional
MV4-11 [11] = assay: Cell cycle arrest in human MV411 cells assessed as accumulation at G1 phase at 1.25 uM after 24 hrs by propidium iodide staining based flow cytometric analysis (reference value: 40.62 to 65.56%); type: functional
MV4-11 [12] = assay: Induction of apoptosis in human MV411 cells assessed as late apoptotic cells at 1.25 uM after 48 hrs by Annexin-V-FITC/propidium iodide staining based flow cytometric method (reference value: 4.38 to 4.63%); type: functional
MV4-11 [13] = assay: Cell cycle arrest in human MV411 cells assessed as accumulation at S phase at 0.625 uM after 24 hrs by propidium iodide staining based flow cytometric analysis (reference value: 30.25 to 47.5%); type: functional
MV4-11 [14] = assay: Induction of apoptosis in human MV411 cells assessed as early apoptotic cells at 0.3125 uM after 48 hrs by Annexin-V-FITC/propidium iodide staining based flow cytometric method (reference value: 1.15 to […]); type: functional
[15] = biological target: T1, Histone-lysine N-methyltransferase, H3 lysine-79 specific; assay: Binding affinity to recombinant human His6-SUMO tagged DOT1L (1 to 416 residues) expressed in Escherichia coli BL21(DE3) by surface plasmon resonance method
Target sequence in this assay (Q8TEK3 whole entry, the tested form may be a part): as the sequence (Q8TEK3 whole entry, looked up, the tested form may be a part) above

MV4-11 [16] = assay: Antiproliferative activity against human MV411 cells after 72 hrs by Alamar blue assay; type: functional, cell-based; conditions: MV4-11, 72 h
MV4-11 [17] = assay: Induction of apoptosis in human MV411 cells assessed as late apoptotic cells at 0.625 uM after 48 hrs by Annexin-V-FITC/propidium iodide staining based flow cytometric method (reference value: 4.38 to 4.63%); type: functional
MV4-11 [18] = assay: Cell cycle arrest in human MV411 cells assessed as accumulation at G1 phase at 0.3125 uM after 24 hrs by propidium iodide staining based flow cytometric analysis (reference value: 40.62 to 65.56%); type: functional
MV4-11 [19] = assay: Cell cycle arrest in human MV411 cells assessed as accumulation at S phase at 1.25 uM after 24 hrs by propidium iodide staining based flow cytometric analysis (reference value: 30.25 to 47.5%); type: functional
[20] = biological target: T1, Histone-lysine N-methyltransferase, H3 lysine-79 specific; assay: as §1, with “25” for “100”
Target sequence in this assay (Q8TEK3 whole entry, looked up, the tested form may be a part): as above

MV4-11 [21] = assay: Cell cycle arrest in human MV411 cells assessed as accumulation at G1 phase after 24 hrs by propidium iodide staining based flow cytometric analysis; type: functional
MV4-11 [22] = assay: Induction of apoptosis in human MV411 cells assessed as viable cells at 0.625 uM after 48 hrs by Annexin-V-FITC/propidium iodide staining based flow cytometric method (reference value: 88.5 to 94.5%); type: functional; conditions: MV4-11, 48 h, read-out: Activity
[23] = biological target: T1, Histone-lysine N-methyltransferase, H3 lysine-79 specific; assay: Inhibition of recombinant human His6-SUMO tagged DOT1L (1 to 416 residues) expressed in Escherichia coli BL21(DE3) using oligonucleosome as substrate pretreated for 15 mins followed by substrate addition measured after 60 mins in presence of [3H]SAM by liquid scintillation counting method
Target sequence in this assay (Q8TEK3 whole entry, the tested form may be a part): as the sequence (Q8TEK3 whole entry, looked up, the tested form may be a part) above

MV4-11 [24] = assay: Cell cycle arrest in human MV411 cells assessed as accumulation at G2 phase at 1.25 uM after 24 hrs by propidium iodide staining based flow cytometric analysis (reference value: 4.19 to 11.88%); type: functional
MV4-11 [25] = assay: Induction of apoptosis in human MV411 cells assessed as necrotic cells at 0.3125 uM after 48 hrs by Annexin-V-FITC/propidium iodide staining based flow cytometric method (Rvb <= 0.08%); type: functional
MV4-11 [26] = assay: Cell cycle arrest in human MV411 cells assessed as accumulation at G2 phase at 0.3125 uM after 24 hrs by propidium iodide staining based flow cytometric analysis (reference value: 4.19 to 11.88%); type: functional
MV4-11 [27] = assay: Induction of apoptosis in human MV411 cells assessed as late apoptotic cells at 0.3125 uM after 48 hrs by Annexin-V-FITC/propidium iodide staining based flow cytometric method (reference value: 4.38 to 4.63%); type: functional
MV4-11 [28] = assay: Induction of apoptosis in human MV411 cells assessed as necrotic cells at 1.25 uM after 48 hrs by Annexin-V-FITC/propidium iodide staining based flow cytometric method (Rvb <= 0.08%); type: functional

- inhibition [7]: 78%
- inhibition [9]: 75%
- Kd [15]: 7.08 µM
- IC50 (MV4-11 [16]): 1.07 µM
- inhibition [20]: 62%
- IC50 [23]: 9.7 µM
Compound: COc1ccccc1-c1nnc2sc(/C=C/c3ccco3)nn12
- Activity (MV4-11 [1]): 37.51%
- Activity (MV4-11 [2]): 10.59%
- viability at 1.25 µM (MV4-11 [3]): 9.46%
- Activity (MV4-11 [4]): 44.1%
- viability at 0.3125 µM (MV4-11 [5]): 73.6%
- Activity (MV4-11 [6]): 57.22%
- Activity (MV4-11 [8]): 33.2%
- Activity (MV4-11 [10]): 1.11%
- Activity (MV4-11 [11]): 58.01%
- Activity (MV4-11 [12]): 45.5%
- Activity (MV4-11 [13]): 32.19%
- Activity (MV4-11 [14]): 13.7%
- Activity (MV4-11 [17]): 35.3%
- Activity (MV4-11 [18]): 46.31%
- Activity (MV4-11 [19]): 18.51%
- Activity (MV4-11 [21]): Dose-dependent effect
- viability at 0.625 µM (MV4-11 [22]): 30.4%
- Activity (MV4-11 [24]): 23.18%
- Activity (MV4-11 [25]): 0.72%
- Activity (MV4-11 [26]): 16.17%
- Activity (MV4-11 [27]): 12%
- Activity (MV4-11 [28]): 0.91%
